In patent publication US9198896B2 (priority 2006, dated 2015):
Marks after values point to notes of the source that are not given here.

Key:
Teratogenicity study = assay type: in vivo, mice; settings: treatment (oral and intravenous) from conception for 3 weeks
Procedure: Teratogenicity: For this test, mating was performed between mice as mentioned above in the case of fertility studies. […] But, as soon as they conceived, as indicated by vaginal plug formation, the treatment (oral and intravenous) started and continued for 3 weeks in a similar fashion for chronic toxicity studies. […] These litters also grew up healthy with no signs of abnormality. Healthy litters were born again when mating was performed among these animals.

EAC cells [1] = assay: Increase in body weight of EAC cell-inoculated mice; assay type: in vivo
Fertility study = settings: oral or intravenous, dose and schedule as chronic toxicity test
EAC cells [2] = assay: Tumor growth inhibition study; settings: for % of cells present in respect of the control / No. of EAC cells (in million) / Volume of packed cells: day 3 to day 16
EAC cells [3] = assay: Increase in life span study of EAC cell-inoculated mice; assay type: in vivo; settings: 14 days from day 3
Procedure: Increase in life span study. For increase in life span study (ILS), testing was evaluated by calculating the median survival time (MST) of the treated (T) and control (C) groups and expressed as ILS value [(T/C−1)×100].
The treatment started from day 3. The amount of each compound indicated in the parentheses is the amount administered per kg body weight per day.
The day on which 10^5 EAC cells were inoculated into each mouse was considered as day 0. The treatment started from day 3. […] 15 animals received a particular mode of treatment. Control group received only normal saline. […] Each set of experiment was repeated 4 times.

[4] = mice, 1 day: oral 2 g, subcutaneous 1 g, intravenous 0.3 g/kg; observed up to 90 days
[5] = Long-term (chronic) toxicity study, rabbits; settings: rabbit, long-term treatment
From the text: Long-term (chronic) toxicity study: Mode of treatment and dilution by either water or normal saline were identical to acute toxicity study. Chronic toxicity study was made with four species of animals: mice, rat, rabbit and dog.
Rabbits. For experiments with rabbits, two groups were used per mode of treatment. Each group in each mode of treatment consists of 4 animals, either male or female.
However, each animal was placed in a separate cage.
Total number of animals in each group including control and different modes of treatment: 6 (mice), 5 (rats) and 4 (rabbits). Each set of experiment was repeated 4 times for mice and rats and for rabbits 2 times respectively. […] In Table 3, αWeight of animals for mice and rats in gm and for rabbit in Kg.
We also measured the body weights of the animals. […] Besides, we also measured several marker enzymes and metabolites in the blood and sera of dog (see below).

[6] = Biochemical tests of blood/sera of rats after long-term treatment; assay type: in vivo, rat; settings: 1 week after long-term treatment
[7] = Pharmacokinetics, single oral dose study; settings: for ka (apparent absorption rate constant): 1 to 4 h; for k (elimination rate constant): 4-8 h; for half-life / CL/F / Cmax / Tmax: mouse, whole blood, po
[8] = Table 7, MG 30 mg/kg/day ip 0.5 ml
[9] = Table 7, MG 100 mg/kg/day ip 0.5 ml
[10] = Table 11, MG 30 mg/kg/day ip 0.25 ml
[11] = Table 11, MG 100 mg/kg/day ip 0.25 ml
[12] = mice, single oral dose 50 mg/kg
[13] = mice, single oral dose 100 mg/kg
[14] = mice, single oral dose 200 mg/kg

With `CC(=O)C=O` [methylglyoxal] the “outcome of pregnancy (teratogenicity)” value (Teratogenicity study) was “gave birth to healthy litters”, the “Percent increase in body weight” value (EAC cells [1]; Table 8, MG 30 mg/kg/day, Day 15) was 15.8 ± 1.3% and the “Percent increase in body weight” value (EAC cells [1]; Table 8, MG 30 mg/kg/day, Day 20) was 19.0 ± 1.6%. For the same molecule, the “Percent increase in body weight” value (EAC cells [1]; Table 8, MG 30 mg/kg/day, Day 25) was 30.0 ± 2.9%, the “Percent increase in body weight” value (EAC cells [1]; Table 8, MG 30 mg/kg/day, Day 30) was 32.9 ± 3.0% and the “Percent increase in body weight” value (EAC cells [1]; Table 8, MG 30 mg/kg/day, Day 35, 2 animals survived out of 6) was 38.8 ± 3.0^b %. For the same molecule, the “Percent increase in body weight” value (EAC cells [1]; Table 8, MG 100 mg/kg/day, Day 15) was 8.0 ± 0.7%, the “Percent increase in body weight” value (EAC cells [1]; Table 8, MG 100 mg/kg/day, Day 20) was 10.0 ± 1.2% and the “Percent increase in body weight” value (EAC cells [1]; Table 8, MG 100 mg/kg/day, Day 25) was 11.0 ± 1.0%. The “Percent increase in body weight” value (EAC cells [1]; Table 8, MG 100 mg/kg/day, Day 30) was 11.2 ± 0.9%, the “Percent increase in body weight” value (EAC cells [1]; Table 8, MG 100 mg/kg/day, Day 35) was 11.2 ± 1.1% and the “Percent increase in body weight” value (EAC cells [1]; Table 10, MG 30 mg/kg/day ip, Day 20) was 19.0 ± 1.6%. For the same molecule, the “Percent increase in body weight” value (EAC cells [1]; Table 10, MG 30 mg/kg/day ip, Day 30) was 32.9 ± 3.0%, the “Percent increase in body weight” value (EAC cells [1]; Table 10, MG 100 mg/kg body weight/day ip, Day 30) was 11.2 ± 0.9% and the “Percent increase in body weight” value (EAC cells [1]; Table 10, MG 100 mg/kg body weight/day ip, Day 35) was 11.2 ± 1.1%. The “abnormalities among the litters” value (Fertility study) was “Neither deformation of organs nor any other abnormalities”, the “effect on cell proliferation in the peritoneal cavity” value (EAC cells [2]; EAC cell-inoculated mice, doses of Table 9) was “significant inhibitory effect” and the “% of cells present in respect of the control” value (from here on “% of cells present”) (EAC cells [2]; MG 30 mg/kg/day, Day 10) was 5%. The “No. of EAC cells (in million)” value (EAC cells [2]; MG 30 mg/kg/day, Day 10) was 15 ± 2 million, the “% of cells present” value (EAC cells [2]; MG 30 mg/kg/day, Day 14) was 13% and the “No. of EAC cells (in million)” value (EAC cells [2]; MG 30 mg/kg/day, Day 14) was 230 ± 10 million. The “Volume of packed cells” value (EAC cells [2]; MG 30 mg/kg/day, Day 14) was 0.26 ± 0.02 mL, the “% of cells present” value (EAC cells [2]; MG 30 mg/kg/day, Day 18) was 23% and the “No. of EAC cells (in million)” value (EAC cells [2]; MG 30 mg/kg/day, Day 18) was 820 ± 30 million. The “Volume of packed cells” value (EAC cells [2]; MG 30 mg/kg/day, Day 18) was 0.96 ± 0.05 mL, the “% of cells present” value (EAC cells [2]; MG 100 mg/kg/day, Day 10) was 0% and the “% of cells present” value (EAC cells [2]; MG 100 mg/kg/day, Day 14) was 0%. For the same molecule, the “% of cells present” value (EAC cells [2]; MG 100 mg/kg/day, Day 18) was 0%, the “60 day survivors/15 animals” value (EAC cells [3]; [8]) was 1 and the ILS value (EAC cells [3]; [8]) was 34%. The Median survival time (EAC cells [3]; [8]) was 26 days, the “60 day survivors/15 animals” value (EAC cells [3]; [9]) was 10 and the ILS value (EAC cells [3]; [9]) was “Cure”. The Median survival time (EAC cells [3]; [9]) was “Indefinite”, the “60 day survivors/15 animals” value (EAC cells [3]; [10]) was 1 and the “ILS value (Median survival time of (Treated/Control − 1) × 100])” value (EAC cells [3]; [10]) was 35%. For the same molecule, the Median survival time (EAC cells [3]; [10]) was 27 days, the “60 day survivors/15 animals” value (EAC cells [3]; [11]) was 11 and the “ILS value (Median survival time of (Treated/Control − 1) × 100])” value (EAC cells [3]; [11]) was “Cure”. The Median survival time (EAC cells [3]; [11]) was “Indefinite”, the death [4] was “No death” and the “general physical conditions and behavioral pattern vs control” value [5] was “no abnormalities”. The Creatine kinase ([6]; Intravenous) was 0.36 ± 0.04 units/ml, the “Creatine kinase-MB” value ([6]; Intravenous) was 0.18 ± 0.01 units/ml and the Hb ([6]; Intravenous) was 10.2 ± 0.8 gm/dl. For the same molecule, the “Serum Urea” value ([6]; Intravenous) was 26.3 ± 2.1 mg/dL, the Serum alanine transaminase ([6]; Intravenous) was 28 ± 1.6 units/ml and the Serum alkaline phosphatase ([6]; Intravenous) was 41.6 ± 1.2 KA units. It also gave a Serum aspartate transaminase ([6]; Intravenous) of 125 ± 5 units/ml, a Serum creatinine ([6]; Intravenous) of 0.90 ± 0.02 mg/dL and a Serum glucose ([6]; Intravenous) of 102 ± 10 mg/dL. The Creatine kinase ([6]; Oral) was 0.37 ± 0.05 units/ml, the “Creatine kinase-MB” value ([6]; Oral) was 0.16 ± 0.03 units/ml and the Hb ([6]; Oral) was 10.4 ± 0.3 gm/dl. The “Serum Urea” value ([6]; Oral) was 24.3 ± 1.9 mg/dL, the Serum alanine transaminase ([6]; Oral) was 24 ± 2.5 units/ml and the Serum alkaline phosphatase ([6]; Oral) was 39.3 ± 1.6 KA units. The Serum aspartate transaminase ([6]; Oral) was 132 ± 3 units/ml, the Serum creatinine ([6]; Oral) was 0.82 ± 0.03 mg/dL and the Serum glucose ([6]; Oral) was 109 ± 6 mg/dL. For the same molecule, the Hb ([6]; Subcutaneous) was 10.35 ± 0.35 gm/dl, the “Serum Urea” value ([6]; Subcutaneous) was 23.5 ± 1.3 mg/dL and the Serum alanine transaminase ([6]; Subcutaneous) was 28 ± 2.8 units/ml. For the same molecule, the Serum alkaline phosphatase ([6]; Subcutaneous) was 45.3 ± 1.8 KA units, the Serum aspartate transaminase ([6]; Subcutaneous) was 141 ± 7 units/ml and the Serum creatinine ([6]; Subcutaneous) was 0.85 ± 0.03 mg/dL. The Serum glucose ([6]; Subcutaneous) was 122 ± 3 mg/dL, the Lag time [7, 12] was “≈55 min” and the “V (apparent volume of distribution)” value [7, 12] was 23.31 L/kg. For the same molecule, the “ka (apparent absorption rate constant)” value [7, 12] was 0.277 h⁻¹, the “k (elimination rate constant)” value [7, 12] was 0.33 h⁻¹ and the Lag time [7, 13] was “≈50 min”. The “V (apparent volume of distribution)” value [7, 13] was 41.84 L/kg, the “ka (apparent absorption rate constant)” value [7, 13] was 0.223 h⁻¹ and the “k (elimination rate constant)” value [7, 13] was 0.198 h⁻¹. For the same molecule, the Lag time [7, 14] was “≈50 min”, the “V (apparent volume of distribution)” value [7, 14] was 80.97 L/kg and the “ka (apparent absorption rate constant)” value [7, 14] was 0.216 h⁻¹. The “k (elimination rate constant)” value [7, 14] was 0.192 h⁻¹, the lag time ([7]; mice, single oral dose, all the three doses (50, 100, 200 mg/kg)) was 50 to 55 min and the “concentrations in plasma and whole blood compared” value ([7]; mice, untreated and orally treated) was “almost identical”. It also gave a half-life [7] of 2.1 to 3.6 h, a CL/F ([7]; 50 mg/kg) of 128 mL/min/kg and a Cmax ([7]; 50 mg/kg) of 13.9 µM. The half-life ([7]; 50 mg/kg) was 2.1 h, the Tmax ([7]; 50 mg/kg, tmax, mice, single oral dose 50 mg/kg) was roughly 4 h and the CL/F ([7]; 100 mg/kg) was 138 mL/min/kg. The Cmax ([7]; 100 mg/kg) was 18.7 µM, the half-life ([7]; 100 mg/kg) was 3.5 h and the Tmax ([7]; 100 mg/kg, tmax, mice, single oral dose 100 mg/kg) was roughly 4 h. It also gave a CL/F ([7]; 200 mg/kg) of 259 mL/min/kg, a Cmax ([7]; 200 mg/kg) of 19.5 ± 3.36 µM and a half-life ([7]; 200 mg/kg) of 3.6 h. It also gave a Tmax ([7]; 200 mg/kg, time of peak blood concentration (tmax), mice, single oral doses of 50, 100 and 200 mg/kg) of 4 h and a Tmax ([7]; 200 mg/kg, tmax, mice, single oral dose 200 mg/kg) of roughly 4 h.
